Test results from patent publication US20260185169A1, “MOLECULAR SIGNATURES TO PREDICT LONG-TERM LIVER FIBROSIS PROGRESSION” (THE BOARD OF REGENTS OF THE UNIVERSITY OF TEXAS SYSTEM, priority 2022, published 2026).

Test system: FPS and molecular pathways
Assay: Modulation of FPS and molecular pathways in hepatic transcriptome (RNA-Seq, CES/GSEI) in CENTAUR trial biopsies
Format: in vivo, human
Excerpt: Archived formalin-fixed liver tissues from index biopsy were used for histological assessment in all patients (FIG. 1 and Table 1A-11) to confirm no to minimal fibrosis (METAVIR fibrosis stage F0 or F1). The PLS validation set 1 (and FPS derivation set 1) is a case-control series of 43 chronic hepatitis C patients from a prior cohort study consecutively diagnosed and followed at Johns Hopkins and Massachusetts General Hospital between 1998 and 2010. Twenty-five patients were co-infected with HIV and on anti-retroviral therapies. The patients were regularly followed up with ultrasound elastography at median interval of 1.1 (IQR: 0.6-2.0) years. Liver stiffness measurement >7.0 and >9.5 kPa were regarded as indication of F2 and F3 fibrosis, respectively. The PLS validation set 2 (and FPS derivation set 2) is a case-control series of 38 patients who consecutively underwent liver transplantation for HCV-related cirrhosis and protocol liver biopsies at year 1, 2, and 5 after transplantation (and additional biopsies as needed to evaluate graft rejection, which were excluded) at Baylor University between 2002 and 2007. Median number of biopsies was 8 (IQR: 6-9) per patient with median interval between serial biopsies of 8.6 (IQR: 0.3-12.6) months. […] The FPS derivation set 3 is a cross-sectional series of 31 NAFLD patients who underwent diagnostic liver biopsy at Hiroshima University between 2003 and 2015. The FPS derivation set 4 is a cross-sectional series of 309 NAFLD patients who underwent diagnostic liver biopsy (F0 or F1 fibrosis) at Massachusetts General Hospital between 2009 and 2016. […] The cases were defined as patients who had F-stage increase of one stage or more in the follow-up biopsy. The FPS validation set 2 includes 78 patients with fibrotic liver diseases from various etiologies, for which de-identified fresh liver tissues were available from standard-care hepatic resection for organotypic ex vivo tissue culture at University of Texas Southwestern and Mount Sinai. The FPS validation set 3 consists of NASH patients with F1-F3 fibrosis who underwent liver biopsy before and after 1-year treatment with cenicriviroc (n=9) or placebo (n=10) in the phase Ilb CENTAUR trial (NCT02217475). Decrease of one or more fibrosis stage was regarded as anti-fibrotic response. The serum surrogate FPS was assessed in archived de-identified serum samples from 79 patients with chronic liver diseases. The FPSec validation set is a cohort of 122 patients with compensated (Child-Pugh class A) cirrhosis patients with mixed etiologies enrolled at University of Michigan between 2004 and 2006 as reported in our previous study. Hepatic decompensation was defined as newly developed massive ascites, hepatic encephalopathy, bleeding from gastroesophageal varices, or liver transplantation. The study was approved by institutional review board at respective institutions with written informed consent or exemption for use of archived de-identified samples (protocol numbers: STU062018-058, STU072018-071, 2010P000220/PHS, HS13-00159).
Total RNA was isolated from fixed tissue sections by using High Pure RNA Paraffin kit (Roche), and assessed for quality by qRT-PCR of RPL13A. Total RNA from the PCLS tissues was isolated using RNeasy kit (Qiagen). RNA samples (100-200 ng) were subjected to the PLS/FPS assay implemented in the nCounter platform (NanoString), and transcriptome profiling of the CENTAUR trial samples was performed by RNA-Seq (TrueSeq RNA Access, Illumina). Expression of BCL2, COL1A1, and ACTA2 genes was measured by qRT-PCR (Table 3). Serum protein profiling was performed by using xMAP assay (Luminex). […]

[1] = Fibrosis improved, NASH patients, Hallmark set, Cell cycle, DNA damage, response
[2] = Fibrosis improved, NASH patients, Hallmark set, Cellular signaling
[3] = Fibrosis improved, NASH patients, Hallmark set, Inflammatory response, immunity
[4] = Fibrosis improved, NASH patients, Hallmark set, Metabolism, biosynthesis
[5] = Fibrosis improved, NASH patients, Hallmark set, Pathogenic response
[6] = Fibrosis improved, NASH patients, Hallmark set, Sex hormone signaling
[7] = Fibrosis improved, NASH patients, Hallmark set, Stress response
[8] = Fibrosis improved, NASH patients, Immune cell signature (GSE65136)
[9] = Fibrosis improved, NASH patients, Nuclear receptor signaling (curated pathway members)
[10] = Fibrosis improved, NASH patients, PPAR agonists on mouse primary hepatocytes (GSE27948)
[11] = Fibrosis not improved, NASH patients, Hallmark set, Cell cycle, DNA damage, response

SMILES: CCCCOCCOc1ccc(-c2ccc3c(c2)/C=C(/C(=O)Nc2ccc([S@@+]([O-])Cc4cncn4CCC)cc2)CCCN3CC(C)C)cc1 [Cenicriviroc]
- modulation of TGF-β and PDGFRB pathways (1-year cenicriviroc treatment): unchanged
- proportion of patients with substantial CES reduction (FPS response) (CENTAUR trial, 1-year treatment, paired pre/post biopsies): 22%
- NES, DNA repair gene set [1]: 1.44
- NES, G2M checkpoint gene set [1]: −1.33
- NES, Mitotic spindle gene set [1]: −1.61
- NES, Apoptosis gene set (Fibrosis improved, NASH patients, Hallmark set, Cell death): 1.32
- NES, E2F targets gene set [2]: −1.36
- NES, Hedgehog signaling gene set [2]: −0.65
- NES, KRAS signaling gene set [2]: 1.31
- NES, Myc targets v1 gene set [2]: 1.56
- NES, Myc targets v2 gene set [2]: 1.26
- NES, Notch signaling gene set [2]: 1.00
- NES, PI3K/AKT/mTOR signaling gene set [2]: 0.91
- NES, TGFβ signaling gene set [2]: 0.81
- NES, TNFα signaling via NF-κB gene set [2]: 0.96
- NES, Wnt/β-catenin signaling gene set [2]: −1.07
- NES, mTORC1 signaling gene set [2]: 1.71
- NES, p53 pathway gene set [2]: 1.00
- NES, Allograft rejection gene set [3]: 1.83
- NES, IL2 STAT5 signaling gene set [3]: 0.89
- NES, IL6 JAK STAT3 signaling gene set [3]: 0.95
- NES, Inflammatory response gene set [3]: 1.38
- NES, Interferon-α response gene set [3]: 2.12
- NES, Interferon-γ response gene set [3]: 2.07
- NES, Adipogenesis gene set [4]: 1.60
- NES, Bile acid metabolism gene set [4]: 1.62
- NES, Cholesterol homeostasis gene set [4]: 1.19
- NES, Coagulation gene set [4]: 1.57
- NES, Complement gene set [4]: 2.07
- NES, Fatty acid metabolism gene set [4]: 2.22
- NES, Glycolysis gene set [4]: 1.10
- NES, Heme metabolism gene set [4]: −0.98
- NES, Oxidative phosphorylation gene set [4]: 2.49
- NES, Peroxisome gene set [4]: 1.49
- NES, Protein secretion gene set [4]: 1.57
- NES, Xenobiotic metabolism gene set [4]: 1.66
- NES, Angiogenesis gene set [5]: 1.47
- NES, Epithelial mesenchymal transition gene set [5]: 1.41
- NES, Androgen response gene set [6]: 1.52
- NES, Estrogen response early gene set [6]: −0.79
- NES, Estrogen response late gene set [6]: 1.12
- NES, Hypoxia gene set [7]: 0.97
- NES, Myogenesis gene set [7]: −0.95
- NES, Reactive oxygen species gene set [7]: 1.07
- NES, UV response up gene set [7]: 1.12
- NES, Unfolded protein response gene set [7]: 1.34
- NES, B cell (naïve) gene set [8]: −0.52
- NES, CD4 T cell (naïve) gene set [8]: −0.57
- NES, CD8 T cell gene set [8]: 1.13
- NES, DC (activate) gene set [8]: 1.35
- NES, Gamma delta T cell gene set [8]: 1.09
- NES, Macrophage (M1) gene set [8]: 1.42
- NES, Macrophage (M2) gene set [8]: 2.66
- NES, Mast cell (active) gene set [8]: 1.22
- NES, Mast cell (rest) gene set [8]: −1.59
- NES, Memory B cell gene set [8]: −0.72
- NES, Memory T cell (rest) gene set [8]: 0.80
- NES, Monocyte gene set [8]: 2.81
- NES, NK cell (rest) gene set [8]: 1.12
- NES, Neutrophil gene set [8]: 1.87
- NES, Plasma cell gene set [8]: 0.98
- NES, Regulatory T cell gene set [8]: −0.99
- NES, T follicular helper cell gene set [8]: 1.22
- NES, FXR pathway gene set [9]: −1.06
- NES, PPAR signaling gene set (first listed) [9]: 1.81
- NES, PPAR signaling gene set (second listed) [9]: 1.70
- NES, PPARα pathway gene set (first listed) [9]: 1.55
- NES, PPARα pathway gene set (second listed) [9]: 0.92
- NES, RAR/RXR pathway gene set [9]: −1.50
- NES, RXR/VDR pathway gene set [9]: −1.10
- NES, GW7647 (PPARa agonist) gene set (Fibrosis improved, NASH patients, PPAR agonist on human primary hepatocytes (GSE53399)): 1.84
- NES, GW501516 (PPARd agonist) gene set [10]: 1.16
- NES, ROSIGLITAZONE (PPARg agonist) gene set [10]: 1.36
- NES, WY14643 (PPARa agonist) gene set [10]: 1.56
- NES, PDGFRB target gene signature (Fibrosis improved, NASH patients, iLINCS): −0.83
- NES, DNA repair gene set [11]: 0.85
- NES, G2M checkpoint gene set [11]: 2.00
